Measurements taken from article PMC5833756, “A novel ruthenium complex with xanthoxylin induces S-phase arrest and causes ERK1/2-mediated apoptosis in HepG2 cells through a p53-independent pathway” (Cell Death & Disease, 2018).
Like-named read-outs stand apart in the source and are kept apart here.

How the values were obtained:
[1] = system: MCF-7; assay type: cell-based, human; conditions: MCF-7 (human breast adenocarcinoma), 72 h
[2] = system: HSC-3; assay type: cell-based, human; conditions: HSC-3 (human oral squamous cell carcinoma), 72 h
[3] = system: MRC-5; assay type: cell-based; conditions: MRC-5 (human lung fibroblast, non-cancer), 72 h
[4] = system: ACP-02; assay type: cell-based, human
[5] = system: caspase-9; experiment: Caspase-9 colorimetric activation assay; assay type: cell-based, human; conditions: HepG2, 48 h
Procedure: (§1) A caspase-3 colorimetric assay kit (Sigma-Aldrich), caspase-8 colorimetric assay kit (BioVision Inc.; Milpitas, CA, USA) and caspase-9 colorimetric assay kit (Invitrogen; Frederick, MD, USA) were used to investigate the activation of caspase-3, -8 and -9 in RCX-treated HepG2, respectively. […] Briefly, cells were lysed by incubation with cell lysis buffer on ice for 10 min and then centrifuged. Enzyme reactions were carried out in a 96-well flat-bottom microplate. To each reaction mixture, 5 μL of cell lysate was added. Absorbance at 405 nm was measured using the SpectraMax 190 Microplate Reader (Molecular Devices). The results are expressed as the specific activity (IU/mg protein) of each caspase.

[6] = system: HT-29; assay type: cell-based, human; conditions: HT-29 (human colon adenocarcinoma), 72 h
[7] = system: HaCAT; assay type: cell-based; conditions: HaCAT (human keratinocyte, non-cancer), 72 h
[8] = system: SCC-25; assay type: cell-based, human; conditions: SCC-25 (human oral squamous cell carcinoma), 72 h
[9] = system: HepG2 cells; assay type: cell-based, human
Procedure: Briefly, the cells were harvested in a permeabilization solution containing 0.1% Triton X-100, 2 µg/mL PI, 0.1% sodium citrate and 100 µg/mL RNAse (all from Sigma-Aldrich) and incubated in the dark for 15 min at room temperature. Finally, cell fluorescence was measured by flow cytometry with a BD LSRFortessa cytometer using BD FACSDiva Software (BD Biosciences) and FlowJo Software 10 (FlowJo Lcc; Ashland, OR, USA). Ten thousand events were evaluated per experiment, and cellular debris was omitted from the analysis.

[10] = system: ACP-03; assay type: cell-based, human
[11] = system: K-562; assay type: cell-based, human; conditions: K-562 (human chronic myelogenous leukemia), 72 h
[12] = system: HepG2 cells; experiment: Intracellular reactive oxygen species levels (DCF-DA); assay type: cell-based, human; conditions: HepG2, 1 or 3 h
Procedure: The production levels of ROS were measured according to a previously described method[39] using DCF-DA (Sigma-Aldrich). […] Then, the cells were collected, washed with saline and resuspended in FACS tubes with saline containing 5 μM DCF-DA for 30 min. […] A protection assay using the antioxidant NAC (Sigma-Aldrich) was also performed. […] The cells were then trypsinized, and the TBE assay was performed.

[13] = system: calf thymus DNA; experiment: DNA intercalation assay (ethidium bromide displacement); assay type: binding; conditions: 20 μM, cell-free, 15 min
Procedure: DNA intercalation was assessed by examining the ability of the complex to displace ethidium bromide from ctDNA (Sigma-Aldrich)[36]. […] After a 15 min of incubation at room temperature, fluorescence was measured using the excitation and emission wavelengths of 320 nm and 600 nm, respectively, using the Spectramax Microplate Reader (Molecular Devices).

[14] = system: HCT116; assay type: cell-based, human; conditions: HCT116 (human colon carcinoma), 72 h
[15] = system: SCC-9; assay type: cell-based, human; conditions: SCC-9 (human oral squamous cell carcinoma), 72 h
[16] = system: HepG2; assay type: cell-based, human; conditions: HepG2 (human hepatocellular carcinoma), monolayer, 72 h
[17] = system: caspase-8; experiment: Caspase-8 colorimetric activation assay; assay type: cell-based, human; conditions: HepG2, 48 h
Procedure: as §1

[18] = system: AGP-01; conditions: AGP-01 (human ascitic gastric adenocarcinoma), 72 h
[19] = for Initial body weight: before treatment; for Final body weight / Survival / Differential leukocytes: Eosinophils / Differential leukocytes: Lymphocytes / Differential leukocytes: Monocytes / Differential leukocytes: Neutrophils / Erythrocytes / Total leukocytes: i.p. 21 days; for Differential leukocytes: Eosinophils / Differential leukocytes: Lymphocytes / Differential leukocytes: Monocytes / Differential leukocytes: Neutrophils / Erythrocytes / Total leukocytes: peripheral blood
Procedure: HepG2 cells (1 × 10^7 cells per 500 µL) were implanted subcutaneously into the left front armpit of the mice. […] The treatments were initiated one day after the tumor cell injection. The animals were treated intraperitoneally (200 µL per animal) once daily for 21 consecutive days. On the 22nd day, the animals were anesthetized, and peripheral blood samples were collected from the brachial artery. Animals were euthanized by anesthetic overdose, and tumors were excised and weighed.
To assess the toxicological effects, mice were weighed at the beginning and at the end of the experiment. […] Hematological analysis was performed using light microscopy. Livers, kidneys, lungs and hearts were removed, weighed and examined for any signs of gross lesions, color changes and/or hemorrhages. After gross macroscopic examination, the tumors, livers, kidneys, lungs and hearts were fixed in 4% formalin buffer and embedded in paraffin. Tissue sections were stained with hematoxylin and eosin chromogens, and a pathologist performed the analysis under a light microscope.

[20] = system: SCC-15; assay type: cell-based, human; conditions: SCC-15 (human oral squamous cell carcinoma), 72 h
[21] = HepG2, 12 h, DOX 2 µM, OXA 10 µM, RCX 12 µM
[22] = HepG2, 24 h, DOX 2 µM, OXA 10 µM, RCX 12 µM
[23] = HepG2, 48 h, DOX 2 µM, OXA 10 µM, RCX 12 µM
[24] = HepG2, 72 h, DOX 2 µM, OXA 10 µM, RCX 12 µM
[25] = DOX 0.3 mg/kg, 5-FU 10 mg/kg, RCX 2.5 mg/kg
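Wherever Final body weight is given: mice bearing subcutaneous HepG2 xenografts, given intraperitoneal doses once daily for 21 days, weighed at start and end, blood leukocytes counted by light microscopy on day 22.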
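Wherever Initial body weight is given: mice bearing subcutaneous HepG2 xenografts, given intraperitoneal doses once daily for 21 days, weighed at start and end, blood leukocytes counted by light microscopy on day 22.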
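Wherever liver histopathological characteristics is given: mice bearing subcutaneous HepG2 xenografts, given intraperitoneal doses once daily for 21 days, weighed at start and end, blood leukocytes counted by light microscopy on day 22.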
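Wherever lung histopathological characteristics is given: mice bearing subcutaneous HepG2 xenografts, given intraperitoneal doses once daily for 21 days, weighed at start and end, blood leukocytes counted by light microscopy on day 22.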

COc1cc([O-])c(C(C)=O)c(OC)c1.F[P-](F)(F)(F)(F)F.[Ru+2].c1cnc2c(c1)ccc1cccnc12.c1cnc2c(c1)ccc1cccnc12 [RCX, cis-[Ru(phen)2(xant)](PF6)] gave an IC50 [1] of 22.4 µM, an IC50 [2] of 7.7 µM and an IC50 [3] of 21.3 µM. The “selectivity index (SI)” value [4] was 0.3, the IC50 ([4]; ACP-02 (human gastric adenocarcinoma), 72 h) was 18.3 µM and the caspase-9 activity [5] was “caused the activation of all caspases analyzed”. For the same molecule, the IC50 [6] was 3.4 µM, the IC50 [7] was 6.1 µM and the IC50 [8] was 6.5 µM. The “DNA content G0/G1” value [9, 21] was 66.4 ± 4.0%, the “DNA content G2/M” value [9, 21] was 13.3 ± 1.1% and the “DNA content S” value [9, 21] was 18.0 ± 7.4%. For the same molecule, the “DNA content Sub-G0/G1” value [9, 21] was 9.6 ± 1.1 %, the “DNA content G0/G1” value ([9]; HepG2, 12 h, RCX 24 µM) was 68.9 ± 2.2% and the “DNA content G2/M” value ([9]; HepG2, 12 h, RCX 24 µM) was 13.9 ± 1.6%. For the same molecule, the “DNA content S” value ([9]; HepG2, 12 h, RCX 24 µM) was 8.6 ± 4.5%, the “DNA content Sub-G0/G1” value ([9]; HepG2, 12 h, RCX 24 µM) was 13.0 ± 2.5 % and the “DNA content G0/G1” value [9, 22] was 38.2 ± 1.2 %. The “DNA content G2/M” value [9, 22] was 17.6 ± 0.9%, the “DNA content S” value [9, 22] was 22.4 ± 0.7 % and the “DNA content Sub-G0/G1” value [9, 22] was 15.3 ± 0.6 %. The “DNA content G0/G1” value ([9]; HepG2, 24 h, RCX 24 µM) was 29.9 ± 2.7 %, the “DNA content G2/M” value ([9]; HepG2, 24 h, RCX 24 µM) was 13.0 ± 1.3% and the “DNA content S” value ([9]; HepG2, 24 h, RCX 24 µM) was 13.0 ± 1.6%. The “DNA content Sub-G0/G1” value ([9]; HepG2, 24 h, RCX 24 µM) was 34.7 ± 1.4 %, the “DNA content G0/G1” value [9, 23] was 23.3 ± 2.0 % and the “DNA content G2/M” value [9, 23] was 9.0 ± 0.8 %. For the same molecule, the “DNA content S” value [9, 23] was 11.5 ± 2.7%, the “DNA content Sub-G0/G1” value [9, 23] was 44.1 ± 6.3 % and the “DNA content G0/G1” value ([9]; HepG2, 48 h, RCX 24 µM) was 18.9 ± 3.0 %. The “DNA content G2/M” value ([9]; HepG2, 48 h, RCX 24 µM) was 6.5 ± 0.7 %, the “DNA content S” value ([9]; HepG2, 48 h, RCX 24 µM) was 10.3 ± 1.3% and the “DNA content Sub-G0/G1” value ([9]; HepG2, 48 h, RCX 24 µM) was 62.6 ± 3.4 %. The “DNA content G0/G1” value [9, 24] was 23.6 ± 1.9 %, the “DNA content G2/M” value [9, 24] was 11.1 ± 1.8% and the “DNA content S” value [9, 24] was 13.2 ± 0.8%. For the same molecule, the “DNA content Sub-G0/G1” value [9, 24] was 42.6 ± 6.8 %, the “DNA content G0/G1” value ([9]; HepG2, 72 h, RCX 24 µM) was 19.7 ± 3.3 % and the “DNA content G2/M” value ([9]; HepG2, 72 h, RCX 24 µM) was 6.7 ± 0.7%. For the same molecule, the “DNA content S” value ([9]; HepG2, 72 h, RCX 24 µM) was 4.9 ± 1.1 %, the “DNA content Sub-G0/G1” value ([9]; HepG2, 72 h, RCX 24 µM) was 68.2 ± 3.7 % and the “selectivity index (SI)” value [10] was 0.2. For the same molecule, the IC50 ([10]; ACP-03 (human gastric adenocarcinoma), 72 h) was 26 µM, the IC50 [11] was 6.1 µM and the ROS levels [12] was “did not induce a significant increase in ROS levels”. For the same molecule, the “displacement of ethidium bromide from ctDNA (fluorescence)” value [13] was “decreased the ethidium bromide fluorescence”, the IC50 [14] was 1.6 µM and the IC50 [15] was 3.4 µM. For the same molecule, the IC50 [16] was 13.5 µM, the caspase-8 activity [17] was “caused the activation of all caspases analyzed” and the IC50 [18] was 5.3 µM. For the same molecule, the lung histopathological characteristics ([19]; atelectasis, hemorrhage, inflammation, congestion, doxorubicin 0.3 mg/kg, RCX both doses, 21 days) was “more pronounced in the doxorubicin and RCX (both doses) groups than in the other groups”, the Initial body weight ([19]; DOX 0.3 mg/kg, 5-FU 10 mg/kg, RCX 2.5 mg/kg groups) was 22.2 ± 0.5 g and the Initial body weight ([19]; RCX 5 mg/kg group) was 21.1 ± 0.4 g. For the same molecule, the liver histopathological characteristics ([19]; hydropic degeneration, dilatation, necrosis, inflammation, RCX 2.5 and 5 mg/kg, 21 days) was “more pronounced in the RCX groups than in the other groups”, the Final body weight [19, 25] was 20.6 ± 0.4 g and the Survival [19, 25] was 14/14. The Final body weight ([19]; RCX 5 mg/kg) was 17.0 ± 0.4 g, the Survival ([19]; RCX 5 mg/kg) was 7/14 and the “Differential leukocytes: Eosinophils” value [19, 25] was 1.0%. For the same molecule, the “Differential leukocytes: Lymphocytes” value [19, 25] was 49.3%, the “Differential leukocytes: Monocytes” value [19, 25] was 1.0% and the “Differential leukocytes: Neutrophils” value [19, 25] was 48.3%. The Erythrocytes [19, 25] was 9.0 ± 0.6 10^6cells/μL, the Total leukocytes [19, 25] was 3.1 ± 0.5 10^3cells/μL and the “Differential leukocytes: Eosinophils” value ([19]; RCX 5 mg/kg) was 1.0%. The “Differential leukocytes: Lymphocytes” value ([19]; RCX 5 mg/kg) was 49.0%, the “Differential leukocytes: Monocytes” value ([19]; RCX 5 mg/kg) was 1.0% and the “Differential leukocytes: Neutrophils” value ([19]; RCX 5 mg/kg) was 49.0%. The Erythrocytes ([19]; RCX 5 mg/kg) was 8.3 ± 0.3 10^6cells/μL, the Total leukocytes ([19]; RCX 5 mg/kg) was 2.6 ± 0.2 10^3cells/μL and the IC50 [20] was 6.8 µM.
